In ChEMBL document CHEMBL1201862, “PubChem BioAssay data set” (2004):
Activity calls are given as the source filed them.

Columns and labels:
[1] = target: G-protein coupled receptor 35 (Homo sapiens, UniProt Q9HC97); assay: SAR Analysis for the identification of Selective Antagonists of ERK1/2 Activity in GPR35-Overexpressing U2OS Cells. [Related pubchem assays: 2079, 2058 ]; format: functional, cell-based
[2] = target: G-protein coupled receptor 55 (Homo sapiens, UniProt Q9Y2T6); assay: GPR55 antagonists, SAR follow-up, counter-screen for GPR35 antagonist project, imaging, image-based (AID 2397); format: functional
Trypsin = Trypsin (Sus scrofa, UniProt P00761); assay: porcine trypsin inhibitors, dose response, selectivity assay for Rce1 protease inhibitor project, biochemical, quenched peptide fluorescence, cherry-pick (AID 488789)
CAAX prenyl protease 2 = target: T1, CAAX prenyl protease 2 (Saccharomyces cerevisiae S288c, UniProt Q03530); format: biochemical
T1 sequence (Q03530 whole entry): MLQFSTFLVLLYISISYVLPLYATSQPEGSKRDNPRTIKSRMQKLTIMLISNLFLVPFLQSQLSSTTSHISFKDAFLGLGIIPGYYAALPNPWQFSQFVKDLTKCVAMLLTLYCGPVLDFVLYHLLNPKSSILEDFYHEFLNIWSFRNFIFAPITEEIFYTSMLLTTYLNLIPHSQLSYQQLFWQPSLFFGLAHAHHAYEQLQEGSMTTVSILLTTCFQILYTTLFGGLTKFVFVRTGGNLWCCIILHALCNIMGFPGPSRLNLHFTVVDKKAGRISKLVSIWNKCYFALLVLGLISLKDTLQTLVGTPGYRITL

CAAX prenyl protease 1 = CAAX prenyl protease 1 (Saccharomyces cerevisiae S288c, UniProt P47154); assay: Ste24 protease inhibitors, dose response, biochemical, S. cerevisiae, plate reader, cherry-pick (AID 488815)
[3] = inhibitors of firefly luciferase expression or activity, dose response, H4 neuroglioma cells, luminescence (AID 1990); format: functional, cell-based
BJ [4] = assay: cytotoxicity toward BJ-TERT fibroblasts, dose response, cell-based, RAS-independent, luminescence (AID 1933); format: functional; settings: Homo sapiens
cells [5] = format: functional, cell-based
[6] = Luminescence Cell-Based Dose Response HTS to Identify Inhibitors of 5'UTR Stem-Loop Driven Prion Protein mRNA Translation in H4 Neuroglioblastoma Cells. [Related pubchem assays: 1827 (Project Summary), 1813 (Primary HTS)]; format: functional
[7] = inhibitors of SNCA 5'UTR-driven reporter translation, confirmation, H4 neuroglioma cells, luminescence (AID 1988); format: functional, cell-based
BJ [8] = assay: cells; format: functional, cell-based; settings: Homo sapiens
cells [9] = format: functional, cell-based; remark: listed apart in the source
BJ [10] = assay: cytotoxicity toward BJ-TERT-LT-ST fibroblasts, dose response, cell-based, RAS-independent, luminescence (AID 1935); format: functional; settings: Homo sapiens;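 further: BJ fibroblasts immortalized with TERT plus LT and ST oncogenes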
[11] = cytotoxicity toward DRD oncogenic fibroblasts, dose response, cell-based, non-viral oncogenic, luminescence (AID 1934); format: functional; settings: Homo sapiens
Exodeoxyribonuclease V = Exodeoxyribonuclease V (Escherichia coli (strain K12), UniProt P04993+P07648+P08394); assay: E. coli RecBCD inhibitors, dose response, counter-screen for AddAB inhibitor project, absorbance, V66 E. coli, mutant T4 phage (AID 492957); format: functional, cell-based, Escherichia coli str. K-12 substr. MG1655
[12] = THP-1 cell cytotoxicity, dose response, cytotoxicity control for non-replicating M. tuberculosis project (AID 489025); format: functional
[13] = target: Intestinal-type alkaline phosphatase (Homo sapiens, UniProt P09923); assay: Dose Response confirmation of uHTS hits from a small molecule inhibitors of human intestinal alkaline phosphatase via a luminescent assay. [Related pubchem assays (depositor defined):AID2544, AID2574]; format: functional
Nonstructural protein 1 = Nonstructural protein 1 (Influenza A virus, UniProt Q194T2); format: functional, Influenza A virus (A/California/07/2009(H1N1))
[14] = Counterscreen for AddAB inhibitors: absorbance-based bacterial cell-based high throughput dose response assay for inhibitors of bacterial viability. [Related pubchem assays (depositor defined):AID435030, AID449728, AID449731, AID488942, AID488955, AID488956]; format: functional
cells [15] = format: functional
HEK293 = assay: inhibitors of LMP1-driven NF-kB reporter, dose response, cell-based, HEK293, luciferase, cherry-pick (AID 588343); format: functional; settings: Homo sapiens
[16] = target: Heat shock protein HSP 90-alpha (Homo sapiens, UniProt P07900); format: functional, organism-based
BJ [17] = assay: cytotoxicity toward Ras-transformed BJeLR fibroblasts, dose response, cell-based, alamar blue fluorescence, cherrypicked samples (AID 2631); format: functional; settings: Homo sapiens;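 further: confirmatory dose-response assay in RAS-dependent BJ fibroblasts engineered with TERT, LT and ST, with cytotoxicity read by fluorescence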
INS1 [18] = assay: beta cell apoptosis inhibitors, cytokine rescue, dose response, luminescence, retest (AID 449756); format: functional, cell-based; settings: Rattus norvegicus;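 further: cell death triggered by IL-1 beta plus TNF-alpha plus IFN-gamma mixture; protective hits raise ATP signal compared with cytokine alone wells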
[19] = target: T2, Dual specificity protein phosphatase 3 (Homo sapiens, UniProt P51452); assay: VHR1 phosphatase inhibitors, primary screen, biochemical, absorbance, uHTS (AID 1654)
[20] = target: T2, Dual specificity protein phosphatase 3; assay: VHR1 phosphatase inhibitors, biochemical (AID 1878)
[21] = target: T3, Dual specificity protein phosphatase 6 (Rattus norvegicus, UniProt Q64346); assay: MKP-3 phosphatase inhibitors, primary screen, biochemical, rat enzyme, in vitro (AID 425)
[22] = target: Induced myeloid leukemia cell differentiation protein Mcl-1 (Homo sapiens, UniProt Q07820); format: functional
[23] = target: Bifunctional protein GlmU (Mycobacterium tuberculosis, UniProt P9WMN3); assay: Inhibitors of Mycobacterial Glucosamine-1-phosphate acetyl transferase (GlmU). Secondary screen.; design: species or system Mycobacterium tuberculosis H37Rv
[24] = target: DNA dC->dU-editing enzyme APOBEC-3A (Homo sapiens, UniProt P31941); assay: APOBEC3A DNA deaminase inhibitors, dose response, biochemical (AID 504722); format: functional
[25] = target: DNA dC->dU-editing enzyme APOBEC-3G (Homo sapiens, UniProt Q9HC16); assay: Dose Response confirmation of small molecule APOBEC3G DNA Deaminase Inhibitors via a fluorescence-based single-stranded DNA deaminase assay. [Related pubchem assays (depositor defined):AID493012, AID493028]; format: functional
[26] = target: T4, Apoptotic protease-activating factor 1 (Homo sapiens, UniProt O14727); assay: activation of Apaf-1 mediated apoptosis – fluorescent, uHTS hits, dose response (AID 588554); format: functional
T4 sequence (O14727 whole entry): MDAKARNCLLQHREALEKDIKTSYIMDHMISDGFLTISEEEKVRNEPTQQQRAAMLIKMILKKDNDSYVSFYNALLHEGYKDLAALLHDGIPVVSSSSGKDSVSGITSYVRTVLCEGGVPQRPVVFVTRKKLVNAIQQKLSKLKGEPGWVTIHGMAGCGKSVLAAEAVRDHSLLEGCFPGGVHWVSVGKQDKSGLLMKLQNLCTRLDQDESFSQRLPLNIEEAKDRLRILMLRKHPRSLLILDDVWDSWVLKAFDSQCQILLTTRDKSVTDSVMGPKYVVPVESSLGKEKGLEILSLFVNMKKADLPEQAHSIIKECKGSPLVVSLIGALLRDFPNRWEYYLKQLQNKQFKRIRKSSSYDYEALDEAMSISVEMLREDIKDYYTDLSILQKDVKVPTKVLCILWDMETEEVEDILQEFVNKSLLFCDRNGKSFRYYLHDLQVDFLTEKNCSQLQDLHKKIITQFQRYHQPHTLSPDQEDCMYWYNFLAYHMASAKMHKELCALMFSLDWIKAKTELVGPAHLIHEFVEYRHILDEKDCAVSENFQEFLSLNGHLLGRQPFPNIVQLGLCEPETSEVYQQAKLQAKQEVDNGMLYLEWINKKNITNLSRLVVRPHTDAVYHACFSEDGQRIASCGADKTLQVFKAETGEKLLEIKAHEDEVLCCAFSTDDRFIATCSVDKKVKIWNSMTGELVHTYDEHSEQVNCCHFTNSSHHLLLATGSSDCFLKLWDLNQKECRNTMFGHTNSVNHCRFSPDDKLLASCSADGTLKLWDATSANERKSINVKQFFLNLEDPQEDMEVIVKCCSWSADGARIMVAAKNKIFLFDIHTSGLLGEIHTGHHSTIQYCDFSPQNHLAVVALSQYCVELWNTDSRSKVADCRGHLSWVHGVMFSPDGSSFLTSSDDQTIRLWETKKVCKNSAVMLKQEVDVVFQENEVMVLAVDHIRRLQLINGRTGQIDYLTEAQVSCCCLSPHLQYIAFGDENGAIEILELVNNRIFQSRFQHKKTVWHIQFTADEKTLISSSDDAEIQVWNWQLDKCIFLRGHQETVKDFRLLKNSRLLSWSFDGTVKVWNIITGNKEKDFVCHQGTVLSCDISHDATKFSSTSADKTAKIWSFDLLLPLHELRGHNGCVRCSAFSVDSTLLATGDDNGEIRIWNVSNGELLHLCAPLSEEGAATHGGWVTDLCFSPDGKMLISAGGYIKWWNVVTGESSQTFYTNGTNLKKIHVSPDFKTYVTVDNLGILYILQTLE

[27] = target: T5, Carboxy-terminal domain RNA polymerase II polypeptide A small phosphatase 1 (Homo sapiens, UniProt Q9GZU7); assay: inhibitors of CTDSP1, concentration-response testing, biochemical assay, absorbance-based, actives from ultra-high-throughput screening (AID 540297); format: functional
T5 sequence (Q9GZU7 whole entry): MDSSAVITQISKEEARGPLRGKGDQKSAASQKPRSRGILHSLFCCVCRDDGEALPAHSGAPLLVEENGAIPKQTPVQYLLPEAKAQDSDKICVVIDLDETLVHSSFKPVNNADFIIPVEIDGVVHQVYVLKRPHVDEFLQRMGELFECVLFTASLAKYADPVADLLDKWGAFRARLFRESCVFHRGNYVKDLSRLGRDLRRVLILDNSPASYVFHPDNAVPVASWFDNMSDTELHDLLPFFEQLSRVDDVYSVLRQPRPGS

[28] = target: DNA (cytosine-5)-methyltransferase 1 (Homo sapiens, UniProt P26358); assay: DNMT1 methyltransferase inhibitors, confirmation, biochemical, fluorescent molecular beacon (AID 602386); format: functional
[29] = target: T6, Small ubiquitin-related modifier 1 (Homo sapiens, UniProt P63165); assay: inhibitors of SUMO1 peptide binding, dose response, biochemical, fluorescence polarization, uHTS hits (AID 624382); format: functional; settings: read-out: IC50_Mean
[30] = target: T6, Small ubiquitin-related modifier 1; assay: inhibitors of SUMO1 partner interactions, dose response, biochemical, FRET (AID 624383); format: functional; settings: read-out: IC50_Mean
INS1 [31] = assay: inhibitors of cytokine-induced nitrite release, dose response, cell-based, Griess absorbance, INS-1E, dry powder (AID 488866); format: functional; settings: Rattus norvegicus
[32] = target: T2, Dual specificity protein phosphatase 3; assay: SAR VHR1 absorbance Assay for In Vitro dose response studies. [Related pubchem assays (depositor defined):AID1654, AID1661, AID1878, AID1992, AID2004]
[33] = target: T2, Dual specificity protein phosphatase 3; assay: SAR VHR1 Fluorescent Assay for In Vitro dose response studies. [Related pubchem assays (depositor defined):AID1654, AID1661, AID1878, AID1992, AID2004, AID2070, AID2085]; format: functional
[34] = target: T7, Tyrosine-protein phosphatase non-receptor type 7 (Homo sapiens, UniProt P35236); assay: redox-dependent HePTP inhibition, mechanism study, biochemical, fluorescence (AID 2068); format: functional
T7 sequence (P35236 whole entry): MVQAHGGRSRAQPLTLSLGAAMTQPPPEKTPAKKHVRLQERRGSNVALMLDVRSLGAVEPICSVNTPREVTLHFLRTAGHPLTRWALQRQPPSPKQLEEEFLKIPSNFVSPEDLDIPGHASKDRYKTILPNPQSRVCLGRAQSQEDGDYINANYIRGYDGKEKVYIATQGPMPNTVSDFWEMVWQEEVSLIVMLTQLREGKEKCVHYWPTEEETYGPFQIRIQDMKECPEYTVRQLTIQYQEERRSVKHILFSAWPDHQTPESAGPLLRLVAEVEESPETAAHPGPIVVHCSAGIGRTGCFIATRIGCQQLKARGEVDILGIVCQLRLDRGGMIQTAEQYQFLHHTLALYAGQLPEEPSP

[35] = target: T3, Dual specificity protein phosphatase 6; format: functional

T2 sequence (P51452 whole entry): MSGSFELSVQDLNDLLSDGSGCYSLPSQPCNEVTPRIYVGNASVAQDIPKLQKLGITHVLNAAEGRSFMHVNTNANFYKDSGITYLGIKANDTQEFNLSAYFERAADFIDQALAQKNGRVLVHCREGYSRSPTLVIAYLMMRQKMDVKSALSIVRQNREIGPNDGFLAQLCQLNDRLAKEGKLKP
T6 sequence (P63165 whole entry): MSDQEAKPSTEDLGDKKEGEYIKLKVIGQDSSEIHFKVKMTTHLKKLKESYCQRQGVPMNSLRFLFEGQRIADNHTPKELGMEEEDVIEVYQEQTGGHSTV
T3 sequence (Q64346 whole entry): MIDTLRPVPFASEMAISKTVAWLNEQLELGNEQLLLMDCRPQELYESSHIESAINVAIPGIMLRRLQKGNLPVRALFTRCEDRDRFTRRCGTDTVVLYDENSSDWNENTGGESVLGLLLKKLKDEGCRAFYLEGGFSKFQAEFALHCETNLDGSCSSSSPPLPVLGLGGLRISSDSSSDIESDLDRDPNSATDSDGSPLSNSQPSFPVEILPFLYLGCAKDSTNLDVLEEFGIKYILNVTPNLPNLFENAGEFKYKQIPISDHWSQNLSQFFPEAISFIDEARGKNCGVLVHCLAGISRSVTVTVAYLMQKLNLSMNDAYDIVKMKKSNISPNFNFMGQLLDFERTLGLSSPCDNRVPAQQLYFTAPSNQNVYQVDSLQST
Chain of Nonstructural protein 1 (Q194T2 whole entry): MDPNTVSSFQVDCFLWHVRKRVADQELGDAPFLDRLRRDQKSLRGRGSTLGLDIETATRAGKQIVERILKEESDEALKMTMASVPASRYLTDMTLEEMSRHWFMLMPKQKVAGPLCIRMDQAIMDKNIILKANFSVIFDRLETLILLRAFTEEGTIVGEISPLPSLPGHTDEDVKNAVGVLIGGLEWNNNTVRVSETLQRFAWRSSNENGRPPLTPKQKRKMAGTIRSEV
Chain of G-protein coupled receptor 55 (Q9Y2T6 whole entry): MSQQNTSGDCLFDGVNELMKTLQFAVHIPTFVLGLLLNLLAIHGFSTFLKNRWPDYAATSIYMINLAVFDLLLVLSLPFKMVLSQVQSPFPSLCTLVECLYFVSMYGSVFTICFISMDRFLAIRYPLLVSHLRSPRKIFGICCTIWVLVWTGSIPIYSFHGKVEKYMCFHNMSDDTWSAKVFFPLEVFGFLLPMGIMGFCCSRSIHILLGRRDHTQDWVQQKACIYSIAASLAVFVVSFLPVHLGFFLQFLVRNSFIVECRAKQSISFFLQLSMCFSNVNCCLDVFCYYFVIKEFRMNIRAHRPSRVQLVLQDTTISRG
Chain of G-protein coupled receptor 35 (Q9HC97 whole entry): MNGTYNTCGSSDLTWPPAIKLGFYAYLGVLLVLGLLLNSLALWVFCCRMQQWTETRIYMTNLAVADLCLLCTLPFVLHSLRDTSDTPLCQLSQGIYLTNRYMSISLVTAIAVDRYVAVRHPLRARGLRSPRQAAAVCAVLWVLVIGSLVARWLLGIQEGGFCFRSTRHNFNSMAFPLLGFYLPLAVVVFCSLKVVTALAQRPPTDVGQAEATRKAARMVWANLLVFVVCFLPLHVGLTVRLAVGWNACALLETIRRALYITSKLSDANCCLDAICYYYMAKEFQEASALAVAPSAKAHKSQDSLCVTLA
Chain of Trypsin (P00761 whole entry): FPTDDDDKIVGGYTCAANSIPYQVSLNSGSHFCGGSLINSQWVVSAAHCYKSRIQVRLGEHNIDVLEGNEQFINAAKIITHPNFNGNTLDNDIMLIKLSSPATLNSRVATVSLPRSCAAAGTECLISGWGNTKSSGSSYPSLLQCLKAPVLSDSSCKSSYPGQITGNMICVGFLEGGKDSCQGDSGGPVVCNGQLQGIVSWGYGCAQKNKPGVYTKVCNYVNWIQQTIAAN
Chain of DNA dC->dU-editing enzyme APOBEC-3G (Q9HC16 whole entry): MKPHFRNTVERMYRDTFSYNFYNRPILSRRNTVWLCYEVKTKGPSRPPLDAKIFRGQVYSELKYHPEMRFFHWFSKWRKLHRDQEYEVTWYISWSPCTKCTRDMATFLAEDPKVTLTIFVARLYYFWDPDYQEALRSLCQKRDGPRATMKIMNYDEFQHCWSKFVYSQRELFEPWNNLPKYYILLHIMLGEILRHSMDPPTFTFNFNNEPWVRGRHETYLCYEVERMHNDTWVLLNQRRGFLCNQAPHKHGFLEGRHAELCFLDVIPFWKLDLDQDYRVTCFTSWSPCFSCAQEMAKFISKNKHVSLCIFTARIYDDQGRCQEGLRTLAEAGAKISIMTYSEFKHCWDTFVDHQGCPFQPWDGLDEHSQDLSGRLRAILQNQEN
Chain of DNA dC->dU-editing enzyme APOBEC-3A (P31941 whole entry): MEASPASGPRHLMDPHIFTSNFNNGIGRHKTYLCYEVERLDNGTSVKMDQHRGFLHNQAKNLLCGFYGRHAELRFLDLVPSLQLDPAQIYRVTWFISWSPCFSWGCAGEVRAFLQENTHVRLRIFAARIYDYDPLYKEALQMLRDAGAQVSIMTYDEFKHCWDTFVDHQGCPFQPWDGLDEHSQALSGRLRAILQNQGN
Chain of Bifunctional protein GlmU (P9WMN3 whole entry): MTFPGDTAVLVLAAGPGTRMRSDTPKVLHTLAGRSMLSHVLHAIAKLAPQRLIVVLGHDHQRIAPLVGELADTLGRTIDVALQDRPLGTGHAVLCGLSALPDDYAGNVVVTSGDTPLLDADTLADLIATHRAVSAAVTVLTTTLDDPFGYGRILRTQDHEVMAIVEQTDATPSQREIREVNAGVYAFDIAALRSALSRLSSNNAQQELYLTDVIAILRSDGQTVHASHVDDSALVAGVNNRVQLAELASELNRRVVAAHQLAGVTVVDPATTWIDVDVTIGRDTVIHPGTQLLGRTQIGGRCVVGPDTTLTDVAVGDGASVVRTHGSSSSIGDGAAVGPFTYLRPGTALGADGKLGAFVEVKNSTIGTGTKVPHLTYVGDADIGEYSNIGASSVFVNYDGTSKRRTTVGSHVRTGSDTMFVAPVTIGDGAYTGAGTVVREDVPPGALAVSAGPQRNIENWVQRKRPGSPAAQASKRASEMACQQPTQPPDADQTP
Chain of CAAX prenyl protease 1 (P47154 whole entry): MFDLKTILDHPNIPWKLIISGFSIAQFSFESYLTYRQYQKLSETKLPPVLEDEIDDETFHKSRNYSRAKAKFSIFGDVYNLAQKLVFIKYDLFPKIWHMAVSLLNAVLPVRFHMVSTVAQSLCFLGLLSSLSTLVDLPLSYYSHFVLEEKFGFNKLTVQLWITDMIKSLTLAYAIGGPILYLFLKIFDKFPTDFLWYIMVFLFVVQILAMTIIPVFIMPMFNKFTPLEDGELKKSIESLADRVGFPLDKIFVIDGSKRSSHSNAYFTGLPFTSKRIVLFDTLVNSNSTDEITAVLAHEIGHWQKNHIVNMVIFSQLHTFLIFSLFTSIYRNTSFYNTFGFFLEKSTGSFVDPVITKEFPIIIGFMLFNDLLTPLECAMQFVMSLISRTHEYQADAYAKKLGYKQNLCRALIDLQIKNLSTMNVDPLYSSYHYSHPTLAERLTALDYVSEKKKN
Chain of Intestinal-type alkaline phosphatase (P09923 whole entry): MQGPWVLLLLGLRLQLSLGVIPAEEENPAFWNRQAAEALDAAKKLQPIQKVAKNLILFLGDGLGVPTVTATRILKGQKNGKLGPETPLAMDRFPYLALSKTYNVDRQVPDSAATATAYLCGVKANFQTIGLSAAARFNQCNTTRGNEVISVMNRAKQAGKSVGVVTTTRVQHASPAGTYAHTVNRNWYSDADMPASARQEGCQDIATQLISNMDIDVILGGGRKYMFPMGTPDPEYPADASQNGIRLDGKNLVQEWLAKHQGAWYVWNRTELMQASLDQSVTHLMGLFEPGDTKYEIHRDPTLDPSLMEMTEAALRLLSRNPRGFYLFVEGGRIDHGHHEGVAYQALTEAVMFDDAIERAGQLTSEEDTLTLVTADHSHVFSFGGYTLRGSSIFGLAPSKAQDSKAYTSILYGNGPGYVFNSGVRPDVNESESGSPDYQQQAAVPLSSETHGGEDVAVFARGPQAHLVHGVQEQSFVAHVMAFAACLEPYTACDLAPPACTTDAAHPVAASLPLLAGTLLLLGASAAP
Chain of Induced myeloid leukemia cell differentiation protein Mcl-1 (Q07820 whole entry): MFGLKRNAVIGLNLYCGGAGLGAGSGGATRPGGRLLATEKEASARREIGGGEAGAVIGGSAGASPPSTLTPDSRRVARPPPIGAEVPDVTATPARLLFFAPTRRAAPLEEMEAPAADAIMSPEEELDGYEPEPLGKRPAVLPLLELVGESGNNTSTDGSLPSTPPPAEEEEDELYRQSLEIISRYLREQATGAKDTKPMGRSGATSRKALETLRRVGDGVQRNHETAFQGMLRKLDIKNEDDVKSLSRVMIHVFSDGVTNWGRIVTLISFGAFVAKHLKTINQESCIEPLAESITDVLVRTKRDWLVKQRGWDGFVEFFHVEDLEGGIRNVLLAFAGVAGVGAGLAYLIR

CCOc1ccc(NC(=O)CSc2nc3ccsc3c(=O)n2Cc2ccc(C(=O)O)cc2)cc1
14.5 µM (not active): IC50 [1]
inactive: IC50 [2] > 32 µM

COc1ccccc1-c1coc2c(CN3CCN(C)CC3)c(O)ccc2c1=O
active: AC50 (Trypsin) 28.3 µM | AC50 (CAAX prenyl protease 2) 97.9 µM | AC50 (CAAX prenyl protease 1) 1.57 µM

Cn1nnnc1N=N/C(=N/Nc1ccccc1)c1ccccc1
inconclusive: EC50 (BJ [10]) 4.63 µM | EC50 [11] 7.59 µM | EC50 (BJ [17]) 0.627 µM
> 120 µM (not active): EC50 [3] | EC50 [6]
> 350 µM (not active): EC50 (cells [9])
inactive: IC50 (Exodeoxyribonuclease V) > 119 µM | IC50 [13] > 100 µM | IC50 [14] > 119 µM
active: EC50 (BJ [4]) 5.67 µM | EC50 (cells [5]) 8.13 µM | EC50 [7] 8.09 µM | EC50 (BJ [8]) 2.17 µM | CC50 [12] < 0.078 µM | IC50 (Nonstructural protein 1) 26.5 µM | IC50 (cells [15]) 26.6 µM | AC50 (HEK293) 2.69 µM | AC50 [16] 3.55 µM | AC50 (INS1 [18]) 0.408 µM

Cc1cc2nc(-c3ccc(SCc4ccc(C(=O)O)cc4)nc3)[nH]c2cc1C
active: IC50 [19] 13.9 µM | IC50 [20] 5.73 µM | IC50 [21] 25.8 µM | IC50 [22] 7.97 µM

C=C(C)C(=O)Nc1cccc(C2=NOC3(C2)C[C@H](C(N)=O)N(C(=O)COc2ccc(Cl)cc2)C3)c1 (stereo partly specified)
inactive: IC50 [24] > 100 µM | IC50 [29] > 66.6 µM
active: IC50 [23] 118 µM | IC50 [25] 7.21 µM | EC50 [26] 4.23 µM | IC50 [27] 3.74 µM | IC50 [28] 5.52 µM | IC50 [30] 1.94 µM

COc1ccc(S(=O)(=O)N(C)C[C@@H]2Oc3c(NC(=O)NC4CCCc5ccccc54)cccc3C(=O)N([C@@H](C)CO)C[C@H]2C)cc1 (stereo partly specified)
active: AC50 (INS1 [31]) 124 µM

S=C(NC1CCCCC1)c1cn(CCOc2ccccc2)c2ccccc12
inactive: IC50 [32] > 100 µM | IC50 [33] > 100 µM | IC50 [34] > 100 µM | IC50 [35] > 100 µM
